In assay [1] the target is T1, insulin receptors (Homo sapiens, UniProt P06213).
T1 construct: endogenous in cells; host or cells: IM-9 lymphocytes
As to the kind of experiment: Receptor binding by displacement studies on IM-9 lymphocytes. The conditions noted are these: compared with native insulin.
Method: (§1) The receptor binding was determined by displacement studies on IM-9 lymphocytes. The relative biological activity was determined on cultivated 3T3-L1 adipocytes in the form of the glucose transport.

Assay [2] concerns 3T3-L1 adipocytes. As to the kind of experiment: Relative biological activity as glucose transport in cultivated 3T3-L1 adipocytes. The conditions noted are these: compared with native insulin. The assay is classed as cell-based.
Method: as §1
For assay [3] the following is noted: literature value; cited from earlier work.

T1 sequence (P06213 28-758 limits assumed): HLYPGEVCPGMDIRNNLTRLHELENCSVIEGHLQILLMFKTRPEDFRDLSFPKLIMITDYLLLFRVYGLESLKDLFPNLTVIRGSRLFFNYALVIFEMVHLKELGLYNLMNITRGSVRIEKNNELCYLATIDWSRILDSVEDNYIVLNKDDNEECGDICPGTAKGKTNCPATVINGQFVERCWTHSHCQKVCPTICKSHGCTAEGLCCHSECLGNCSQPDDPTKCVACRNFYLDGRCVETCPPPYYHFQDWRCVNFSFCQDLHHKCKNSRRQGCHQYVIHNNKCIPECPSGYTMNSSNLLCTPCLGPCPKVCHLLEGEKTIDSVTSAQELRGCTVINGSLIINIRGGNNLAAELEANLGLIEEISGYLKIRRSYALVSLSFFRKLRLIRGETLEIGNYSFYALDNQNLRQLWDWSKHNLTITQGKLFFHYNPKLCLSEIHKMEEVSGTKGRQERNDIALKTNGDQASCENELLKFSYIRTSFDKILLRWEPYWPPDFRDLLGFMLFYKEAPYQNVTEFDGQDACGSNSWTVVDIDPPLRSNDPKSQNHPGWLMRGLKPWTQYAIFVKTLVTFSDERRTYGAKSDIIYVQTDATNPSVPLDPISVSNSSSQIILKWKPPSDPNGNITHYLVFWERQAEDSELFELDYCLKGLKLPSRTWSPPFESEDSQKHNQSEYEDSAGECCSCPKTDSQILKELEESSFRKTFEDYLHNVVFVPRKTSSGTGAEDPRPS
T1 sequence (P06213 763-1382 partner limits assumed): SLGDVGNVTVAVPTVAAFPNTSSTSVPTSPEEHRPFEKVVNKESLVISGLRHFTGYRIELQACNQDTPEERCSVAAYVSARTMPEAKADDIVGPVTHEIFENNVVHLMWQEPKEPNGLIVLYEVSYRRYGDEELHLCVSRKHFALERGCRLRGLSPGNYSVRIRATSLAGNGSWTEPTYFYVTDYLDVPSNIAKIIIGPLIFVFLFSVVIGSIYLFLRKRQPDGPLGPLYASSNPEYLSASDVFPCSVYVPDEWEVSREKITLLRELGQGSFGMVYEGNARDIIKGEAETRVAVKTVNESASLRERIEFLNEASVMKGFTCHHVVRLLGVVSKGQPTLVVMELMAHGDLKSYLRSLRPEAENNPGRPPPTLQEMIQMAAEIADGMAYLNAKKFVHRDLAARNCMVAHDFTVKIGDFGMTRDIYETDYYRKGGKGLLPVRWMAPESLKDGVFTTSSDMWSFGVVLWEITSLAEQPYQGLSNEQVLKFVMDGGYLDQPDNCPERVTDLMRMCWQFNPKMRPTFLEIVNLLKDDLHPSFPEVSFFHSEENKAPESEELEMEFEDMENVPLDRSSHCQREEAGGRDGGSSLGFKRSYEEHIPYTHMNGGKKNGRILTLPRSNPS

The substance “B1,B1′-Sub-[Glu^B26}-des-(B27-B30)-insulin-B26-amide Insulin Dimer” yielded a Rel. receptor binding in assay [1] of 176 ± 45.8%. Besides, the Rel. biol. activity in assay [2] is 817.5 ± 224%.

For the substance B1,B1′-suberoyl-insulin dimer, in assay [3], the bioactivity in vitro was 28.8%.

On to “B1,B1′-Sub-[Sar^B26]-des-(B27-B30)-insulin-B26-amide Insulin Dimer”, for which, in assay [1], the Rel. receptor binding came out at 412 ± 94.8%. The Rel. biol. activity in assay [2] is on record as 1957 ± 575%.

The values are drawn from patent US6908897B2, “Covalently bridged insulin dimers” (Aventis Pharma Deutschland GmbH, priority 1999, dated 2005).
